Assay results taken from patent publication US9073858B2, “Methods of targeted drug development” (priority 2010, dated 2015).
Where two headings read alike, the source gives them in different places.

What was measured:
[1] = Stability on incubation with mouse liver microsomes (MLM); type: in vitro ADME; details: percentage left after incubation with mouse liver microsomes for 30 minutes
Procedure: (§1) Stability of hydroxyquinoline analogs were determined (see e.g., TABLE 18). MLM represents the percentage left after incubation with mouse liver microsomes for 30 minutes. HLM represents the percentage left after incubation with human liver microsomes for 30 minutes.
(§2) Stability of analogs having a benzaldehyde derived ring were determined (see e.g., TABLE 18). MLM represents the percentage left after incubation with mouse liver microsomes for 30 minutes. HLM represents the percentage left after incubation with human liver microsomes for 30 minutes.

[2] = Stability on incubation with human liver microsomes (HLM); type: in vitro ADME; details: percentage left after incubation with human liver microsomes for 30 minutes
Procedure: as §1, §2

EGFR = biological target: T1, EGFR (Homo sapiens, UniProt P00533); assay: EGFR in-cell Western (ICW) screening protocol; type: cell-based; set-up: unit not given here; details: for ICW Screen: initial screen
T1 construct: endogenous in cells; host or cells: A431 cells (ATCC CRL-1555)
T1 sequence (P00533 25-1210): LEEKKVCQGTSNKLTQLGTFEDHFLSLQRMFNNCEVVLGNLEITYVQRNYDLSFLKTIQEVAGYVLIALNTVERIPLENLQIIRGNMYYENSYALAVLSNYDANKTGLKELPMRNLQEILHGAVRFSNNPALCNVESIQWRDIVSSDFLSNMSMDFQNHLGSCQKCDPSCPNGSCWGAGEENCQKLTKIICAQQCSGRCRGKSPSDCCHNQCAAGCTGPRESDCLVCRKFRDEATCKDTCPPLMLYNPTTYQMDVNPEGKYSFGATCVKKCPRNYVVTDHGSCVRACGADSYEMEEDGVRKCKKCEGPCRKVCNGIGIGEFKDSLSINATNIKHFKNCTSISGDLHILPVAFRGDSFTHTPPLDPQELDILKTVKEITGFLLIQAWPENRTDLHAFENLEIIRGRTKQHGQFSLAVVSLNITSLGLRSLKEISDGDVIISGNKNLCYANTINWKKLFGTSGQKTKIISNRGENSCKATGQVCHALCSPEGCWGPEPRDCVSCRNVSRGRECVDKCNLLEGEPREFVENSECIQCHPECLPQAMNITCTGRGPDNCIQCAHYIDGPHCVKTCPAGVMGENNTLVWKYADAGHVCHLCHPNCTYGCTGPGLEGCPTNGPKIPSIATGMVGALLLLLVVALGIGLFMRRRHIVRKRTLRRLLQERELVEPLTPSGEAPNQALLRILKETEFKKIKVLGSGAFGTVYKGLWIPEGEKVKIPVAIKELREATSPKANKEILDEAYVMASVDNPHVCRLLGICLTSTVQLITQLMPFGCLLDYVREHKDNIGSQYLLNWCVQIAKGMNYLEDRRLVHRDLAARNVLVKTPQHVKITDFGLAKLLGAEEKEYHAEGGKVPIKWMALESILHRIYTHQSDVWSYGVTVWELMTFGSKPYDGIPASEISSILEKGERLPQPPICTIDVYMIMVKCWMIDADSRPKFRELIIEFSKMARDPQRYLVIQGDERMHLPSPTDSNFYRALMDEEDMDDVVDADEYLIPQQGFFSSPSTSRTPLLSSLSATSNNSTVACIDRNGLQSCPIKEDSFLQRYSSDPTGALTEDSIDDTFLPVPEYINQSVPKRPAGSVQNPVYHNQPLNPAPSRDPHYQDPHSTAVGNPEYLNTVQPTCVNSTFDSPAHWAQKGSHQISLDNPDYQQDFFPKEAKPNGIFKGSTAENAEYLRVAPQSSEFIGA
Outline: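 Serum-starved cells treated with compound 4 h at 37 °C, then stimulated with EGF (20 or 0 ng/ml solution added) in its continued presence. In-cell Western on fixed cells: phospho-EGFR (800 channel) normalised to total EGFR (700 channel), % inhibition calculated against EGF-stimulated and unstimulated no-compound wells.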

[3] = test system: epithelial carcinoma A431 cell line; assay: MTT Cell Proliferation Assay, A431 cell line; type: cell-based; details: for MTT (10 Point follow-up) ratio / MTT-72 h A431/MDBK (ratio): value in brackets; for MTT (10 Point follow-up) ratio: numerically MDBK over A431; for MTT-72 h A431/MDBK (ratio): numerically MDBK value over A431 value
Outline: (§3)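 Cells plated overnight, then exposed 3 days at 37 °C, 5% CO2 to compound in growth medium with 0.5% FBS and 0.5% DMSO final (0.5% DMSO as control).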

MDBK line = assay: MTT Cell Proliferation Assay, MDBK line; type: cell-based, bovine
Outline: as §3

[4] = Homo sapiens, A-431, 10 point follow-up, first value of pair, read-out: MTT (10 Point follow-up) A431
[5] = Homo sapiens, A-431, 72 h, 72 h, first value of A431/MDBK pair, read-out: MTT-72 h A431
[6] = Bos taurus, MDBK, 10 point follow-up, second value of pair, read-out: MTT (10 Point follow-up) MDBK
[7] = Bos taurus, MDBK, 72 h, second value of A431/MDBK pair, read-out: MTT-72 h MDBK
[8] = 72 h, first value of A431/MDBK pair, read-out: MTT-72 h A431
[9] = 72 h, second value of A431/MDBK pair, read-out: MTT-72 h MDBK

Row | Compound | MLM % Remaining@ 30 Min [1] [%] | HLM % Remaining@ 30 Min [2] [%] | ICW Screen (EGFR) | ICW Re-Test (EGFR) | MTT (10 Point follow-up) ratio [3] | MTT-72 h A431/MDBK (ratio) ([3]; 72 h) | IC50 [3, 4] [µM] | IC50 [3, 5] [µM] | IC50 (MDBK line; [6]) [µM] | IC50 (MDBK line; [7]) [µM] | IC50 [3, 8] [µM] | IC50 (MDBK line; [9]) [µM]
1 | Cc1cc(NC(c2ccc(C(F)(F)F)c(F)c2)c2ccc3cccnc3c2O)ncc1Cl (stereo not drawn) [AD4-13106] | 42 | 86 |  |  |  |  |  |  |  |  |  | 
2 | Oc1c(C(Nc2ccc(Cl)cn2)c2ccc(C(F)(F)F)cc2)ccc2cccnc12 (stereo not drawn) [AD4-13053] | 46 | 97 |  |  |  |  |  |  |  |  |  | 
3 | Cc1cc(Cl)cnc1NC(c1ccc(C(F)(F)F)c(F)c1)c1ccc2cccnc2c1O (stereo not drawn) [AD4-13043] | 77 | 98 |  |  |  |  |  |  |  |  |  | 
4 | Cc1cc(Cl)cnc1NC(c1cc(C(F)(F)F)ccc1Cl)c1ccc2cccnc2c1O (stereo not drawn) [AD4-13058] | 60 | 75 |  |  |  |  |  |  |  |  |  | 
5 | COc1ccc(C(Nc2cc(C)ccn2)c2ccc3cccnc3c2O)cc1C (stereo not drawn) [compound 10005] |  |  | 43.76 | 33.76 | 1.20 | 1.07 | 3.45 | 3.44 | 4.14 | 3.69 |  | 
6 | CCOc1ccc(C(Nc2ccccn2)c2cc(Cl)c3cccnc3c2O)cc1 (stereo not drawn) [compound 10101] |  |  | 44.01 | 7.53 | 0.90 | 1.66 | 2.88 |  | 2.59 |  | 5.77 | 9.52
7 | Oc1ccccc1NC(c1cccnc1)c1ccc2cccnc2c1O (stereo not drawn) [compound 11151] |  |  | 35.56 | 45.66 |  | 0.76 |  | 8.25 |  | 6.23 |  | 
8 | Cc1ccc2ccc(C(Nc3ccccn3)c3cccc(O)c3)c(O)c2n1 (stereo not drawn) [compound 1970] |  |  | 26.33 |  |  | 0.81 |  | 39.7 |  | 32.4 |  | 
9 | COc1ccc(C)cc1NC(c1ccc(F)cc1)c1ccc2cccnc2c1O (stereo not drawn) [compound 11014] |  |  | 47.81 | 32.53 |  | 0.92 |  | 4.68 |  | 4.32 |  | 
10 | Cc1cccc(NC(c2ccc(C(F)(F)F)cc2)c2ccc3cccnc3c2O)n1 (stereo not drawn) [compound 10628] |  |  | 30.02 |  |  |  | 0.311 | 0.32 | 0.689 | 0.76 |  | 
11 | COc1ccc(C(Nc2ccccn2)c2ccc3cccnc3c2O)cc1OC (stereo not drawn) [compound 10518] |  |  | 39.93 | 51.72 |  | 0.83 |  | 6.52 |  | 5.43 |  | 
12 | Cc1ccnc(NC(c2cc(C)ccc2O)c2ccc3cccnc3c2O)c1 (stereo not drawn) [compound 10029] |  |  | 40.02 | 35.03 |  | 0.84 |  | 6.46 |  | 5.42 |  | 
13 | COc1cc(C(Nc2ccccn2)c2cc(Cl)c3cccnc3c2O)cc(I)c1O (stereo not drawn) [compound 10086] |  |  | 53.89 | 25.94 |  | 0.77 |  | 5.96 |  | 4.61 |  | 
14 | Cc1ccc2ccc(C(Nc3ccccn3)c3ccc(O)cc3)c(O)c2n1 (stereo not drawn) [compound 1997] |  |  | 29 |  |  | 0.52 |  | 46.8 |  | 24.3 |  | 
15 | CCCOc1ccc(C(Nc2ccccn2)c2ccc3cccnc3c2O)cc1 (stereo not drawn) [compound 10028] |  |  | 30.12 |  |  | 0.95 |  | 5.69 |  | 5.38 |  | 
16 | COc1ccc(Cl)cc1C(Nc1ccccn1)c1cc(Cl)c2cccnc2c1O (stereo not drawn) [compound 10943] |  |  | 44.28 | 68.79 | 1.50 | 1.60 | 1.25 | 1.31 | 1.88 | 2.1 |  | 
17 | Cc1ccnc(NC(c2ccc3cccnc3c2O)c2c(O)cccc2Cl)c1 (stereo not drawn) [compound 10067] |  |  | 12.5 |  | 2.14 | 1.60 | 1.38 | 2.15 | 2.95 | 3.45 |  | 
18 | Cc1ccc2ccc(C(Nc3ccccn3)c3ccc(C)c(C)c3)c(O)c2n1 (stereo not drawn) [compound 10034] |  |  | 27.1 |  |  | 0.60 |  | 12 |  | 7.16 |  | 

Row | Compound | MLM % Remaining@ 30 Min [1] [%] | HLM % Remaining@ 30 Min [2] [%] | ICW Screen (EGFR) | ICW Re-Test (EGFR) | MTT (10 Point follow-up) ratio [3] | MTT-72 h A431/MDBK (ratio) ([3]; 72 h) | IC50 [3, 4] [µM] | IC50 [3, 5] [µM] | IC50 (MDBK line; [6]) [µM] | IC50 (MDBK line; [7]) [µM] | IC50 [3, 8] [µM] | IC50 (MDBK line; [9]) [µM]
19 | CCc1ccc(C(Nc2ccccn2)c2ccc3cccnc3c2O)cc1 (stereo not drawn) [compound 10041] |  |  | 45.08 | 3.45 | 1.47 | 1.00 | 1.59 | 2.95 | 2.34 | 2.94 |  | 
20 | Cc1cccc(NC(c2ccc(F)cc2)c2ccc3cccnc3c2O)n1 (stereo not drawn) [compound 10056] |  |  | 34.16 | 44.46 |  | 0.96 |  | 5.38 |  | 5.18 |  | 
21 | CCOc1ccc(C(Nc2cc(C)ccn2)c2ccc3cccnc3c2O)cc1OCC (stereo not drawn) [compound 10143] |  |  | 45.61 | 27.18 |  | 0.92 |  | 4.74 |  | 4.33 |  | 
22 | CCN1CCN(C(c2cccnc2)c2ccc3cccnc3c2O)CC1 (stereo not drawn) [compound 10550] |  |  | 31.84 |  |  | 0.79 |  | 9.59 |  | 7.6 |  | 
23 | Oc1c(C(Nc2cccc(Cl)c2)c2cccnc2)ccc2cccnc12 (stereo not drawn) [compound 11057] |  |  | 44.4 | 73.29 |  | 0.98 |  | 7.99 |  | 7.86 |  | 
24 | Cc1cccc(NC(c2ccccn2)c2ccc3ccc(C)nc3c2O)n1 (stereo not drawn) [compound 10948] |  |  | 44.24 | 30.99 |  | 1.34 |  | 8.87 |  | 11.9 |  | 
25 | COc1ccc(C(Nc2ccccn2)c2ccc3ccc(C)nc3c2O)cc1C (stereo not drawn) [compound 1979] |  |  | 27.02 |  |  | 0.95 |  | 5.69 |  | 5.38 |  | 
26 | CCOc1cc(C(Nc2cccnc2)c2ccc3cccnc3c2O)ccc1O (stereo not drawn) [compound 10936] |  |  | 37.96 | 57 |  | 1.05 |  | 5.43 |  | 5.68 |  | 
27 | CCOc1cc(C(Nc2cc(C)ccn2)c2ccc3ccc(C)nc3c2O)ccc1O (stereo not drawn) [compound 10071] |  |  | 40.85 | 43.19 |  | 1.37 |  | 7.89 |  | 10.8 |  | 
28 | CCOc1cc(C(Nc2ccccn2)c2ccc3cccnc3c2O)ccc1OC (stereo not drawn) [compound 1968] |  |  | 46.48 | 20.95 |  | 0.86 |  | 7.14 |  | 6.15 |  | 
29 | CCOc1ccc(C(Nc2ccccn2)c2ccc3ccc(C)nc3c2O)cc1OC (stereo not drawn) [compound 1976] |  |  | 26.91 |  |  | 0.50 |  | 26.2 |  | 13 |  | 
30 | Oc1c(C(Nc2ccccn2)c2ccsc2)ccc2cccnc12 (stereo not drawn) [compound 10957] |  |  | 49.8 | 39.03 |  | 0.80 |  | 17.5 |  | 14.1 |  | 
31 | Oc1ccc(Br)c(C(Nc2ccccn2)c2ccc3cccnc3c2O)c1 (stereo not drawn) [compound 10064] |  |  | 9.336 |  | 1.29 |  | 1.56 |  | 2.01 |  |  | 
32 | CC(C)C(=O)NC(c1cccs1)c1cc([N+](=O)[O-])c2cccnc2c1O (stereo not drawn) [compound 10950] |  |  | 33.87 | 99.56 | 1.63 | 1.70 | 0.54 | 0.56 | 0.878 | 0.95 |  | 
33 | Oc1c(C(Nc2nccs2)c2cccs2)ccc2cccnc12 (stereo not drawn) [compound 10602] |  |  | 57.72 | 43.06 | 0.71 | 0.65 | 3.3 | 3.56 | 2.35 | 2.31 |  | 
34 | COC(=O)c1ccc(NC(c2cccs2)c2ccc3cccnc3c2O)cc1 (stereo not drawn) [compound 11015] |  |  | 64.21 | 57.97 |  | 0.76 |  | 5.07 |  | 3.87 |  | 
35 | CCOc1ccc(NC(c2ccccn2)c2ccc3cccnc3c2O)cc1 (stereo not drawn) [compound 1073] |  |  | 54.34 | 38.77 |  | 1.53 |  |  |  |  | 4.83 | 7.41
36 | Oc1c(C(Nc2ccccn2)c2ccccc2F)ccc2cccnc12 (stereo not drawn) [compound 10033] |  |  | 49.36 | 5.98 | 2.44 | 2.49 | 1.81 | 1.85 | 4.43 | 4.62 |  | 
